Test results taken from US6737383B1, “Herbicidal oxadiazolidines” (priority 1999, dated 2004).

Experiments:
cocklebur = assay: Test B pre/postemergence cocklebur; type: in vivo, Xanthium strumarium
Summary of the method: (§1)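 Herbicidal effect was estimated by eye on a ten-point control scale after plants spent twelve to sixteen days in a greenhouse following soil or foliar treatment. Foliar sprays targeted plants at one to four leaves; all doses were formulated in a non-phytotoxic solvent with surfactant.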

rape = assay: Test B pre/postemergence rape; type: in vivo, Brassica napus
Summary of the method: as §1

wild oat = assay: Test B pre/postemergence wild oat; type: in vivo, Avena fatua
Summary of the method: as §1

surinam grass = assay: Test B pre/postemergence surinam grass; type: in vivo, Brachiaria decumbens
Summary of the method: as §1

sugar beet = assay: Test B pre/postemergence sugar beet; type: in vivo, Beta vulgaris
Summary of the method: as §1

velvetleaf = assay: Test B pre/postemergence velvetleaf; type: in vivo, Abutilon theophrasti
Summary of the method: as §1

wheat = assay: Test B pre/postemergence wheat; type: in vivo, Triticum aestivum
Summary of the method: as §1

duck salad = assay: Test B flood test duck salad; type: in vivo, Heteranthera limosa
Summary of the method: (§2)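 Plants were grown to the 2-leaf stage before treatment with test chemical, then held in a greenhouse for twelve to sixteen days. Injury was visually rated against untreated controls on a 0–10 scale, where 0 is no effect and 10 is complete control.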

morningglory = assay: Test B pre/postemergence morningglory; type: in vivo, Ipomoea hederacea
Summary of the method: as §1

pigweed = assay: Test B pre/postemergence pigweed; type: in vivo, Amaranthus retroflexus
Summary of the method: as §1

purple nutsedge = assay: Test B pre/postemergence purple nutsedge; type: in vivo, Cyperus rotundus
Summary of the method: as §1

smallflower flatsedge = assay: Test B flood test smallflower flatsedge; type: in vivo, Cyperus difformis
Summary of the method: as §2

corn = assay: Test B pre/postemergence corn; type: in vivo, Zea mays
Summary of the method: as §1

crabgrass = assay: Test B pre/postemergence crabgrass; type: in vivo, Digitaria sanguinalis
Summary of the method: as §1

bedstraw = assay: Test B pre/postemergence bedstraw; type: in vivo, Galium aparine
Summary of the method: as §1

blackgrass = assay: Test B pre/postemergence blackgrass; type: in vivo, Alopecurus myosuroides
Summary of the method: as §1

[1] = Postemergence, Rate 125 g/ha, scale 0 to 10, 0 is no effect, 10 is complete control
[2] = Postemergence, Rate 250 g/ha, scale 0 to 10, 0 is no effect, 10 is complete control
[3] = Postemergence, Rate 500 g/ha, scale of 0 to 10 where 0 is no effect and 10 is complete control
[4] = Preemergence, Rate 62 g/ha, scale 0 to 10 (0 no effect, 10 complete control)
[5] = Preemergence, Rate 125 g/ha, scale of 0 to 10 where 0 is no effect and 10 is complete control
[6] = Preemergence, Rate 250 g/ha, scale 0 to 10, 0 is no effect, 10 is complete control
[7] = Preemergence, Rate 500 g/ha, scale 0 to 10, 0 is no effect, 10 is complete control
[8] = Rate 62 g/ha, Postemergence, scale of 0 to 10 where 0 is no effect and 10 is complete control
[9] = Preemergence, Rate 250 g/ha, scale of 0 to 10 where 0 is no effect and 10 is complete control
[10] = Rate 62 g/ha, flood test species, Pre-emergence, visual evaluation after twelve to sixteen days
[11] = Rate 125 g/ha, under heading Pre-emergence, flood test species, visual evaluation after twelve to sixteen days
[12] = Rate 250 g/ha, Pre-emergence, flood-test species, scale 0 to 10, 0 is no effect, 10 is complete control
[13] = Rate 500 g/ha, Pre-emergence, flood test species, scale 0 to 10 (0 no effect, 10 complete control)

CC1CC1Cn1c(=O)on(C(=O)N(c2ccc(F)cc2)C(C)C)c1=O (stereo not shown) [Compound 402]
7: Redroot pigweed plant response rating (pigweed; [3]) | Plant response rating, Bedstraw (bedstraw; [2]) | Plant response rating, Blackgrass (blackgrass; [5])
2: Plant response rating, B. signalgrass (surinam grass; [1]) | Plant response rating, B. signalgrass (surinam grass; [2]) | Plant response rating, Sugarbeets (sugar beet; [2]) | Sugarbeets plant response rating (sugar beet; [3]) | Morningglory plant response rating (morningglory; [6]) | Morningglory plant response rating (morningglory; [7]) | Plant response rating, Redroot pigweed (pigweed; [5]) | Redroot pigweed plant response rating (pigweed; [8]) | S. Flatsedge plant response rating (smallflower flatsedge; [13]) | Plant response rating, Bedstraw (bedstraw; [4])
0: Plant response rating, Cocklebur (cocklebur; [4]) | Plant response rating, Cocklebur (cocklebur; [5]) | Cocklebur plant response rating (cocklebur; [6]) | Cocklebur plant response rating (cocklebur; [7]) | Cocklebur plant response rating (cocklebur; [8]) | Plant response rating, Rape (rape; [4]) | Wild oats plant response rating (wild oat; [8]) | Plant response rating, B. signalgrass (surinam grass; [4]) | B. signalgrass plant response rating (surinam grass; [8]) | Plant response rating, Sugarbeets (sugar beet; [4]) | Plant response rating, Sugarbeets (sugar beet; [5]) | Plant response rating, Velvetleaf (velvetleaf; [4]) | Plant response rating, Velvetleaf (velvetleaf; [5]) | Velvetleaf plant response rating (velvetleaf; [8]) | Wheat plant response rating (wheat; [3]) | Plant response rating, Wheat (wheat; [4]) | Plant response rating, Wheat (wheat; [5]) | Wheat plant response rating (wheat; [8]) | Plant response rating, Ducksalad (0 to 10 scale, 0 is no effect, 10 is complete control) (duck salad; [10]) | Ducksalad plant response rating (0 to 10 scale, 0 is no effect, 10 is complete control) (duck salad; [11]) | Ducksalad plant response rating (duck salad; [12]) | Ducksalad plant response rating (duck salad; [13]) | Plant response rating, Morningglory (morningglory; [4]) | Plant response rating, Morningglory (morningglory; [5]) | Plant response rating, Redroot pigweed (pigweed; [4]) | Plant response rating, Nutsedge (purple nutsedge; [2]) | Nutsedge plant response rating (purple nutsedge; [3]) | Plant response rating, Nutsedge (purple nutsedge; [4]) | Plant response rating, Nutsedge (purple nutsedge; [5]) | Nutsedge plant response rating (purple nutsedge; [6]) | Nutsedge plant response rating (purple nutsedge; [7]) | Nutsedge plant response rating (purple nutsedge; [8]) | Plant response rating, S. Flatsedge (0 to 10 scale, 0 is no effect, 10 is complete control) (smallflower flatsedge; [10]) | S. Flatsedge plant response rating (0 to 10 scale, 0 is no effect, 10 is complete control) (smallflower flatsedge; [11]) | S. Flatsedge plant response rating (smallflower flatsedge; [12]) | Plant response rating, Corn (corn; [1]) | Plant response rating, Corn (corn; [2]) | Corn plant response rating (corn; [3]) | Plant response rating, Corn (corn; [4]) | Plant response rating, Corn (corn; [5]) | Corn plant response rating (corn; [8])
5: Cocklebur plant response rating (cocklebur; [3]) | Rape plant response rating (rape; [6]) | B. signalgrass plant response rating (surinam grass; [3]) | Plant response rating, Redroot pigweed (pigweed; [2]) | Plant response rating, Crabgrass (crabgrass; [2])
4: Plant response rating, Cocklebur (cocklebur; [2]) | Plant response rating, Wild oats (wild oat; [5]) | B. signalgrass plant response rating (surinam grass; [9]) | Plant response rating, Velvetleaf (velvetleaf; [2]) | Velvetleaf plant response rating (velvetleaf; [3]) | Redroot pigweed plant response rating (pigweed; [6])
10: Wild oats plant response rating (wild oat; [7]) | Morningglory plant response rating (morningglory; [3]) | Redroot pigweed plant response rating (pigweed; [7]) | Crabgrass plant response rating (crabgrass; [6]) | Crabgrass plant response rating (crabgrass; [7]) | Bedstraw plant response rating (bedstraw; [7]) | Blackgrass plant response rating (blackgrass; [7])
8: Plant response rating, Rape (rape; [2]) | Rape plant response rating (rape; [7]) | Wild oats plant response rating (wild oat; [6]) | Sugarbeets plant response rating (sugar beet; [7]) | Velvetleaf plant response rating (velvetleaf; [7]) | Plant response rating, Morningglory (morningglory; [2]) | Bedstraw plant response rating (bedstraw; [3])
9: Rape plant response rating (rape; [3]) | B. signalgrass plant response rating (surinam grass; Preemergence, Rate 500 g/ha, scale of 0 to 10 where 0 is no effect and 10 is complete control) | Corn plant response rating (corn; [7]) | Crabgrass plant response rating (crabgrass; [3]) | Plant response rating, Crabgrass (crabgrass; [4]) | Plant response rating, Crabgrass (crabgrass; [5]) | Blackgrass plant response rating (blackgrass; [3]) | Blackgrass plant response rating (blackgrass; [9])
1: Plant response rating, Cocklebur (cocklebur; [1]) | Plant response rating, Rape (rape; [5]) | Rape plant response rating (rape; [8]) | Plant response rating, Wild oats (wild oat; [4]) | Sugarbeets plant response rating (sugar beet; [8])
3: Wild oats plant response rating (wild oat; [3]) | Plant response rating, B. signalgrass (surinam grass; [5]) | Sugarbeets plant response rating (sugar beet; [6]) | Velvetleaf plant response rating (velvetleaf; [6]) | Wheat plant response rating (wheat; [6]) | Morningglory plant response rating (morningglory; [8]) | Corn plant response rating (corn; [6]) | Plant response rating, Crabgrass (crabgrass; [1]) | Crabgrass plant response rating (crabgrass; [8]) | Plant response rating, Bedstraw (bedstraw; [1]) | Plant response rating, Bedstraw (bedstraw; [5]) | Bedstraw plant response rating (bedstraw; [8]) | Plant response rating, Blackgrass (blackgrass; [4])
6: Wheat plant response rating (wheat; [7])
